Assay: Pharmacokinetic studies in SD rats: metabolite GS-461203 in liver homogenate
Type: in vivo
Settings: liver tissue, 50 mg/kg intragastric
Protocol: In this experiment, the compound of Example 1 was used, and the positive control drug was the same as above. Each of the compounds was added to 0.5% sodium carboxymethyl cellulose (CMC), and the mixture was vortexed to prepare a 10 mg/mL suspension for intragastric administration.
The standard substance GS-461203 was the metabolite of the tested compounds, and the chemical name was (2′R)-2′-deoxy-2′-fluoro-2′-methyluridinetriphosphate, which was purchased from TriLink BioTechnologies Corporation, USA.
Male SD rats, 6-8 weeks old, weighing 237.0-268.4 g, provided by Shanghai Super-B&K laboratory animal Co. Limited.
• 1) administration: dividing SD rats into 4 groups, with 18 rats in each group, intragastrically administering with the compound in an amount of 50 mg/kg. […]

SMILES: CC(C)OC(=O)[C@H](C)NP(=O)(OC[C@H]1O[C@@H](n2ccc(=O)[nH]c2=O)[C@](C)(F)[C@@H]1O)Oc1ccc(-c2ccccc2)cc1 (stereo partly drawn) [Example 1, (2S)-2-((([1,1′-biphenyl]-4-yloxy)(((2R,3R,4R,5R)-5-(2,4-dioxo-3,4-dihydropyrimidin-1(2H)-yl)-4-fluoro-3-hydroxy-4-methyltetrahydrofuran-2-yl)methoxy)phosphoryl)amino)propanoic Acid Isopropyl Ester]
- in vivo exposure level of the metabolite compared with the positive control: greater

From patent US9963480B2, “Nucleoside phosphoramidate compound and use thereof” (priority 2013, dated 2018)
